In PubChem BioAssay (NCI) one finds TGI and GI50 data, which are given here for twelve compounds.

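A five-concentration, 48-hour dose response in 96-well plates underlies each endpoint, interpolated linearly between surrounding concentrations. Here, GI50 denotes the concentration required for 50% inhibition of growth. At the TGI there is no net growth.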

Experiment in all cases: DTP human tumour cell line panel, 48 h
In test [1] the test system is CAKI-1 renal.
For test [2], the system named is CCRF-CEM leukemia.
In test [3] the test system is HCT-15 colon.
Test [4] concerns KM12 colon.
Test [5] concerns NCI-H522 lung.
Test [6] relates to RPMI-8226 leukemia.
Test [7] deals with SK-MEL-28 melanoma.
Test [8] concerns SR leukemia.
Test [9] concerns A498 renal.
Test [10] deals with SK-MEL-5 melanoma.

`Cc1cc(C)c2c(c1C)CN1CN2Cc2c(C)c(C)cc(C)c21`: the total growth inhibition concentration (TGI) in test [1], in test [2], in [3], in test [4], in test [5] and in test [6] was more than 100 µM throughout. Also, the TGI in test [7] and in test [8] was more than 100 µM each time.
With `CC1(C)CC[C@]2(C(=O)O)CCC3(C)C(=CCC4[C@@]5(C)CC[C@H](OC6OCC(O)C(O)C6OC6OC(CO)C(O)C(O)C6O)C(C)(C)C5CC[C@]43C)C2C1` (some centres undefined), the TGI – broadly, the concentration giving total growth inhibition – in test [9] was found to be 4.09 µM; in [1], 3.06 µM; in test [3], 4.38 µM; in [4], 4.8 µM; in test [6], 6.71 µM; in test [7], 4.39 µM. Also, the figures for the TGI in [10] and in test [8] were 11.4 µM and 5.87 µM, respectively.
As for `O=[N+]([O-])c1ccc(N=Nc2c(O)[nH]c3ccc(Br)cc23)c([N+](=O)[O-])c1`, the TGI in test [1] was 27.2 µM; in [2], 9.3 µM; in test [3] it was 11.6 µM; in [4] it was 79.6 µM; in [5] it was 8.35 µM; in [6], 9.84 µM. The TGI in test [7] was determined as 10.3 µM; in test [10], 3.49 µM; in test [8] it was 10.5 µM.
In the case of `COc1ccc(C(=O)Nc2ccccc2C#N)cc1`, the TGI in test [9], in [1], in test [2], in [3], in test [4] and in test [6] was more than 100 µM throughout. For the same compound, the concentration for total growth inhibition (TGI) in test [7], in [10] and in test [8] was more than 100 µM throughout.
Consider `CCOC(=O)c1c(-c2ccccc2)[nH]c2ccccc2c1=O`, for which the TGI in test [9], in [1], in test [3], in [4], in test [6] and in test [7] was more than 100 µM each time. Also, the TGI in [10] and in [8] was more than 100 µM each time.
As to `O=S(=O)(Nc1ccc2ccc3cccc4ccc1c2c34)c1ccccc1`, the TGI in test [1] was more than 100 µM; in [2] it was 53 µM; in test [3] it was more than 100 µM; in test [4], more than 100 µM; in test [5], more than 100 µM; in [6], 32.5 µM. The total growth inhibition concentration (TGI) in test [7], in test [10] and in [8] was more than 100 µM each time.
Regarding `CN(C)c1ccc(N=C(C#N)c2nc(N)nc(N3CCOCC3)n2)cc1`, the GI50 (commonly the concentration giving 50% growth inhibition) was 39.9 µM in test [1]; 97.2 µM in test [2]; 52.9 µM in test [3]; 53 µM in test [4]; 26.5 µM in test [5]; 74.3 µM in test [6]. The GI50 is 19.5 µM in [7], 40.4 µM in test [10] and 34.9 µM in [8]. Moreover, the total growth inhibition concentration (TGI) in [1], in [2], in [3], in [4], in test [5] and in test [6] was more than 100 µM each time. The figures for the TGI in [7], in [10] and in test [8] were 48.4 µM, more than 100 µM and more than 100 µM, respectively.
`c1ccc2c(c1)SCCCSCCCS2`: the TGI in [2], in test [3], in test [4], in [5], in test [7] and in test [10] was more than 100 µM throughout. The compound further yielded a concentration for total growth inhibition (TGI) in test [8] of more than 100 µM.
As to `COC(=O)C12C3C=CC(O3)C1C1C=CC2O1` (centres undefined), the concentration for total growth inhibition (TGI) in test [2], in test [3], in [4], in [5], in test [6] and in test [7] was more than 100 µM in each case. Also, the TGI in test [10] and in test [8] was more than 100 µM throughout.
On to `O=c1[nH]cnc2c1nnn2C1C=C(CO)C(O)C1O` (centres undefined), for which the concentration for total growth inhibition (TGI) in [9], in test [1], in [2], in test [3], in test [4] and in test [6] was more than 100 µM in each case. The TGI in [7], in test [10] and in [8] was more than 100 µM each time.
With `COC1C2c3ccccc3C(C#N)(Cc3ccc4c(c32)OCO4)N1C(=O)c1ccccc1` (centres undefined), the total growth inhibition concentration (TGI) in [2], in test [3], in test [4], in test [5], in test [6] and in test [7] was more than 100 µM in each case. Moreover, the TGI in test [10] was 31.5 µM; in test [8] it was more than 100 µM.
With `CC1(C)CC(C2CC(C)(C)CC(C)(C)[C@H]2O)[C@@H](O)C(C)(C)C1` (some centres undefined), the concentration for total growth inhibition (TGI) in test [2], in [3], in [4], in test [5], in test [6] and in test [7] was more than 100 µM throughout. In addition, the TGI in test [10] and in test [8] was more than 100 µM each time.
